Read-outs that look alike come from different tables or passages of the source. Bounds are passed on as bounds.

The values below come from patent publication US20100160255A1, “SPIRO-CYCLIC COMPOUND” (Takeda Pharmaceutical Company Limited, priority 2005, published 2010).

For experiment [1], the target named is T1, human ACC1 (Homo sapiens, UniProt Q13085).
T1 construct: made in house; host or cells: SF-9 insect cells, recombinant baculovirus BAC-ACC1
Nature of the experiment: ACC1 inhibitory activity (malachite green absorbance assay, recombinant enzyme). The experiment is classed as biochemical. How it is done: The ACC1 inhibitory activity of the compound of the present invention was evaluated by the following method.
Human ACC1 gene was cloned by PCR using human liver cDNA library (Clontech) as a template, and Primer 1 and Primer 2 shown below. Primer 1 and Primer 2 were prepared by adding recognition sequence of restriction enzymes SalI and NotI based on the information of the base sequence (Genbank Accession U19822) of human ACC1 gene.
PCR was performed using Pyrobest DNA polymerase (TAKARA BIO INC.). The obtained PCR product was cloned to pT7 Blue vector (Novagen) which was, after confirmation of the base sequence, digested with restriction enzymes SalI and NotI. The obtained DNA fragment was inserted into pFAST-BacHTc (Invitrogen) digested with restriction enzymes SalI and NotI to give expression plasmid ACC1/pFAST-BacHTc.
Using the expression plasmid and BAC-TO-BAC Baculovirus Expression System (Invitrogen), virus stock BAC-ACC1 of recombinant Baculovirus was prepared.
SF-9 cells (Invitrogen) were sown at 1×10^6 cells/mL to insect cell culture medium (1 L, Sf-900II SFM medium (Invitrogen) containing 10% fetal bovine serum (Trace), 50 mg/L gentamicin (Invitrogen) and 0.1% Pluronic F-68 (Invitrogen)), and shaking culture was performed using a 2 L volume Erlenmeyer flask at 27° C., 100 rpm.
After culturing for 24 hr, the recombinant Baculovirus BAC-ACC1 (10 mL) was added, and the mixture was further cultured for 3 days. The culture medium was centrifuged at 1000×g for 5 min to give virus-infected cells. The infected cells were washed with phosphate buffered saline (Invitrogen) and centrifuged under the same conditions, and the obtained cells were cryopreserved at −80° C.
The cryopreserved cells were thawed in ice, suspended in 25 mM HEPES buffer (100 mL, pH 7.5) containing 10% Glycerol, 0.13 M NaCl, 1 mM EDTA, 25 mM sodium β-glycerophosphate, 1 mM sodium orthovanadate, added with Complete Protease Inhibitor (Boehringer). The obtained suspension was homogenized 3 times with a Polytron homogenizer (Kinematica) at 20,000 rpm for 30 seconds. The obtained cell disrupt solution was clarified by centrifugation at 185700×g for 50 min and filtrated using a 0.45 μm filter. The filtrate was passed through a column packed with Ni-NTA Super Flow Gel (QIAGEN, 12 mL) at a flow rate of about 5 mL/min. The column was washed with buffer A (50 mM HEPES containing 0.3M NaCl, pH 7.5), further washed with buffer A containing 20 mM Imidazole, and eluted with buffer A containing 100 mM Imidazole. The eluate was concentrated with Vivaspin 20 (Vivascience) having a molecular weight cut off of 30 K. The obtained concentrate was dialyzed using Sephadex G-25 (Amersham Bioscience K.K., 358 mL) equilibrated with 50 mM HEPES (pH7.5) containing 10 mM MgCl2, 2 mM dithiothreitol, 10 mM tripotassium citrate and 0.3M NaCl. The dialysate was concentrated with Vivaspin 20 (Vivascience) having a molecular weight cut off of 30 K and the concentrate was filtered through a 0.22 μm filter to give ACC1. The obtained ACC1 was cryopreserved at −80° C.
ACC1 (0.93 mg/ml) obtained in (2) above was diluted to a concentration of 8 μg/ml with an enzyme reaction buffer (50 mM HEPES (pH7.5), 10 mM MgCl2, 10 mM tripotassium citrate, 2 mM dithiothreitol, 0.75 mg/ml fatty acid free BSA), and added to each well of a 384 well assay plate (Nunc 265196) by 10 μl. […]

Experiment [2] deals with T2, human ACC2 (Homo sapiens, UniProt O00763).
T2 construct: made in house; host or cells: SF-9 insect cells, recombinant baculovirus BAC-ACC2(Nd)
T2 sequence (O00763 117-2458 limits assumed): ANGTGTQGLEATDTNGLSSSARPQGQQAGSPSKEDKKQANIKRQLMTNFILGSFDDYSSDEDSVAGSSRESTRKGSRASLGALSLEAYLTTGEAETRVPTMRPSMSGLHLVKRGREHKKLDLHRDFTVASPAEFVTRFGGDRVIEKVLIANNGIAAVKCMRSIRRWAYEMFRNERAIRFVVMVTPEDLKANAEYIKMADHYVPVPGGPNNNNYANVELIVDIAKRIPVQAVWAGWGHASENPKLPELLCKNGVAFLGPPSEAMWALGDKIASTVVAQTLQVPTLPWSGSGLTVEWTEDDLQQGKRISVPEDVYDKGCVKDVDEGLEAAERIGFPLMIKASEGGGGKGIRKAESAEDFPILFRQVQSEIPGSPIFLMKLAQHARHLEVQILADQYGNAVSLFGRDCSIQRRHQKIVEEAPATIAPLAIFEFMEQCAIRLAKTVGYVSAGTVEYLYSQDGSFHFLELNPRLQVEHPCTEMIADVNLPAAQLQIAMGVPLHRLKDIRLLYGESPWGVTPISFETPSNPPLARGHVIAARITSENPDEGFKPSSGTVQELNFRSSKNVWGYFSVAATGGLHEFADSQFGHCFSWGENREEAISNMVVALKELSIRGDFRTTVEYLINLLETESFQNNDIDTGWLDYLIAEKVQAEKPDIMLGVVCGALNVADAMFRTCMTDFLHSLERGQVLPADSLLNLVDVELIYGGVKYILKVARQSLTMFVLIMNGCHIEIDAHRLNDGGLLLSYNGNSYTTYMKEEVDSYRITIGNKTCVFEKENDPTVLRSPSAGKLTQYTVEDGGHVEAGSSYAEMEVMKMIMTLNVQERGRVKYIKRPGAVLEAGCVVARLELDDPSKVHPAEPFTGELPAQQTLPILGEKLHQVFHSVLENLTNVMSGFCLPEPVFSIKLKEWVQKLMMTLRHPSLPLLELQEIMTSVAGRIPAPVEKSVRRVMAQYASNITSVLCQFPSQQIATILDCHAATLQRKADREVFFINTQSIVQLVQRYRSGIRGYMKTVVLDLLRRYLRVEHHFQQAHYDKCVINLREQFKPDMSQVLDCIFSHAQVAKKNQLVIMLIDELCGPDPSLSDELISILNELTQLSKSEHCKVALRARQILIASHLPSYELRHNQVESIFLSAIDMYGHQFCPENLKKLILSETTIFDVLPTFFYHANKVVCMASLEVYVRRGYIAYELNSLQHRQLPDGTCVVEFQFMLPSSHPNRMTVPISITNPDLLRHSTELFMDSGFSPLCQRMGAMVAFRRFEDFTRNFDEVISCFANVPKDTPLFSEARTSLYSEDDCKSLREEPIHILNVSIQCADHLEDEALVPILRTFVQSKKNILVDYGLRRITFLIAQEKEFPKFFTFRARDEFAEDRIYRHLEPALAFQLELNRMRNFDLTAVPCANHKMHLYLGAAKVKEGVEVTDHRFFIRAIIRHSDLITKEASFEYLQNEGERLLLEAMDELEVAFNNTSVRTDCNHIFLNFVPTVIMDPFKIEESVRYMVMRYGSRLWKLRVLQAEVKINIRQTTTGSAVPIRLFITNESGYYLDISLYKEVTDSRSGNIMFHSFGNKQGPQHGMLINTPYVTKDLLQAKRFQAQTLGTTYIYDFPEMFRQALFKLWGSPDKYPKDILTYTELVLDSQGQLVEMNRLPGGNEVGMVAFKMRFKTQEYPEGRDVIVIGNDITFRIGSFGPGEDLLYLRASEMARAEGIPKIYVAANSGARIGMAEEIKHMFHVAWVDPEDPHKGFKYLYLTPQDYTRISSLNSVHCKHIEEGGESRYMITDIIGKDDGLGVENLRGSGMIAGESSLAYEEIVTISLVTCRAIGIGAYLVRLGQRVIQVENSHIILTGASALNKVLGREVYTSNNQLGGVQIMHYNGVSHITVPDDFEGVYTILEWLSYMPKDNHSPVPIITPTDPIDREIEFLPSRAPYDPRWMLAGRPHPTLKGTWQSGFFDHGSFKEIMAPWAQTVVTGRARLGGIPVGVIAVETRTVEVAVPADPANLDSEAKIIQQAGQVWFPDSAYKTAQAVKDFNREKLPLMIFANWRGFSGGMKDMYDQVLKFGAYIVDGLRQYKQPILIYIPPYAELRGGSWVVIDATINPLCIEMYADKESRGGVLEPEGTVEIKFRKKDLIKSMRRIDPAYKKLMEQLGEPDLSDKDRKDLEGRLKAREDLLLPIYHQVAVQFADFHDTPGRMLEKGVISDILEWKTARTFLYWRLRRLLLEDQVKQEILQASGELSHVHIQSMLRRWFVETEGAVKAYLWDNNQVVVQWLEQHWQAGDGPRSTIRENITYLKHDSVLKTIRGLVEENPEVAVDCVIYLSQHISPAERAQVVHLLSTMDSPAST
Nature of the experiment: ACC2 inhibitory activity (malachite green absorbance assay, recombinant ACC2(Nd)). The experiment is classed as biochemical. The protocol: The ACC2 inhibitory activity of the compound of the present invention was evaluated by the following method.
Human ACC2 gene was cloned by PCR using human skeletal muscle cDNA library (Clontech) as a template, and Primer 1 and Primer 2 shown below. Primer 1 and Primer 2 were prepared by adding recognition sequence of restriction enzymes SalI and XbaI based on the information of the base sequence (Genbank Accession U89344) of human ACC2 gene.
PCR was performed using Pyrobest DNA polymerase (TAKARA BIO INC.). The obtained PCR product was cloned to pT7 Blue vector (Novagen) which was, after confirmation of the base sequence, digested with restriction enzymes SalI and XbaI. The obtained DNA fragment was inserted into pFAST-BacHTa (Invitrogen) digested with restriction enzymes SalI and XbaI to give expression plasmid ACC2/pFAST-BacHTa.
A plasmid for expression of ACC2 free of mitochondrial targeting sequence was prepared by PCR using the expression plasmid as a template, and Primer 3 and Primer 4 shown below.
PCR was performed using Pyrobest DNA polymerase (TAKARA BIO INC.). The obtained PCR product was cloned to pT7 Blue vector (Novagen) which was, after confirmation of the base sequence, digested with restriction enzymes SalI and AflII. The obtained DNA fragment was inserted into pFAST-BacHTa (Invitrogen) digested with restriction enzymes SalI and AflII to give expression plasmid ACC2mito7/pFAST-BacHTa.
Using the expression plasmid and BAC-TO-BAC Baculovirus Expression System (Invitrogen), virus stock BAC-ACC2 of recombinant Baculovirus (N terminal deletion (hereinafter Nd)) was prepared.
SF-9 cells (Invitrogen) were sown at 0.5×10^6 cells/mL to insect cell culture medium (2 L, Sf-900II SFM medium (Invitrogen) containing 10% fetal bovine serum (Trace), 50 mg/L gentamicin (Invitrogen) and 0.1% Pluronic F-68 (Invitrogen)), and shaking culture was performed using a Wave Bioreactor (Wave) under the conditions of 27° C., 20 rpm, rocking angle of 6° and oxygen concentration of 30%.
On day 4 of the culture, 3 L of an insect cell culture medium was added, the rocking angle was set to 8°, and the cells were further cultured. On day 5 of the culture, the recombinant Baculovirus BAC-ACC2(Nd) (100 mL) was added, 5 L of the insect cell culture medium was further added, the rocking angle was set to 11°, and the cells were cultured for 3 days. The culture medium was centrifuged at 1000×g for 10 min to give virus-infected cells. The infected cells were washed with phosphate buffered saline (Invitrogen) and centrifuged under the same conditions, and the obtained cells were cryopreserved at −80° C.
The cryopreserved cells were thawed in ice, suspended in 25 mM HEPES buffer (900 mL, pH 7.5) containing 10% Glycerol, 0.13 M NaCl, 1 mM EDTA, 25 mM sodium β-glycerophosphate, 1 mM sodium orthovanadate, added with Complete Protease Inhibitor (Boehringer). The obtained suspension was homogenized 3 times with a Polytron homogenizer (Kinematica) at 20,000 rpm for 30 seconds. The obtained cell disrupt solution was clarified by centrifugation at 31000×g for 60 min and filtrated using a 0.45 μm filter. The filtrate was passed through a column packed with Ni-NTA Super Flow Gel (QIAGEN, 60 mL) at a flow rate of about 5 mL/min. The column was washed with buffer A (50 mM HEPES containing 0.3M NaCl, pH 7.5), further washed with buffer A containing 20 mM Imidazole, and eluted with buffer A containing 100 mM Imidazole. The eluate was concentrated with Vivaspin 20 (Vivascience) having a molecular weight cut off of 30 K. The obtained concentrate was dialyzed against 50 mM HEPES (pH7.5) containing 10 mM MgCl2, 2 mM dithiothreitol, 10 mM tripotassium citrate and 0.3M NaCl. The dialysate was filtered through a 0.22 μm filter to give ACC2(Nd). The obtained ACC2(Nd) was cryopreserved at −80° C. […]

The mark [3] stands for this setting: Table 8, recombinant human ACC1, 30° C., absorbance 620 nm, read-out: IC50 (ACC1 inhibitory activity).
Where [4] appears, read: Table 9, recombinant human ACC2(Nd), N terminal deletion, 30° C., absorbance 620 nm, read-out: IC50 (ACC2 inhibitory activity).
Where [5] appears, read: Experimental Example 3, same manner as Experimental Example 1, read-out: IC50 values (ACC1 inhibitory activity).

The term IC50 denotes the point on the concentration scale where inhibition reaches its midpoint. For the compound `CCNC(=O)Nc1sc2ccccc2c1C(=O)N1CCC(N2CCCC3(C2)OC(=O)N(CC)C3=O)CC1` (racemic) [Example 228, N-ethyl-N′-(3-{[4-(3-ethyl-2,4-dioxo-1-oxa-3,7-diazaspiro[4.5]dec-7-yl)piperidin-1-yl]carbonyl}-1-benzothien-2-yl)urea], the 50% inhibitory concentration (IC50) in experiment [1] (setting [3]) came to 190 nM; in experiment [2] (setting [4]) it was 41 nM.
For `CCNC(=O)Nc1sc2ccccc2c1C(=O)N1CCC(N2CCCC3(C2)N=C(C)N(CC)C3=O)CC1` (racemic) [Example 233, 1-ethyl-3-(3-{[4-(3-ethyl-2-methyl-4-oxo-1,3,7-triazaspiro[4.5]dec-1-en-7-yl)piperidin-1-yl]carbonyl}-1-benzothien-2-yl)urea], in that order: 110 nM and 17 nM.
For `CCN1C(=O)CC2(CCCN(C3CCN(C(=O)c4c(NC(N)=O)sc5ccccc45)CC3)C2)C1=O` (racemic) [Example 240, 1-(3-{[4-(2-ethyl-1,3-dioxo-2,7-diazaspiro[4.5]dec-7-yl)piperidin-1-yl]carbonyl)-1-benzothien-2-yl)urea], in that order: 350 nM and 23 nM.
For `CCNC(=O)Nc1sc2ccccc2c1C(=O)N1CCC(N2CCCC3(CCN(CC)C3=O)C2)CC1` (racemic) [Example 321, N-ethyl-N′-(3-{[4-(2-ethyl-1-oxo-2,7-diazaspiro[4.5]dec-7-yl)piperidin-1-yl]carbonyl}-1-benzothien-2-yl)urea], the IC50 in experiment [1] (setting [3]) came out at 360 nM; in experiment [2] (setting [4]), 34 nM.
Consider `CCNC(=O)Nc1sc2ccccc2c1C(=O)N1CCC(N2CCCC3(C2)CC(C)(C)OC3=O)CC1` (single isomer, unassigned) [Example 319, N-(3-{[4-(3,3-Dimethyl-1-oxo-2-oxa-7-azaspiro[4.5]dec-7-yl)piperidin-1-yl]carbonyl}-1-benzothien-2-yl)-N′-ethylurea], for which the half-maximal inhibitory concentration (IC50) was at most 100 nM in experiment [1] (setting [5]); 30 nM in experiment [1] (setting [3]); at most 10 nM in experiment [2] (Experimental Example 4, same manner as Experimental Example 2, read-out: IC50 values (ACC2 inhibitory activity)); 5 nM in experiment [2] (setting [4]).
For `CCNC(=O)Nc1sc2ccccc2c1C(=O)N1CCC(N2CCNC3(C2)CC(C)(C)OC3=O)CC1` (centres unmarked) [Example 184, 1-(3-{[4-(3,3-dimethyl-1-oxo-2-oxa-6,9-diazaspiro[4.5]dec-9-yl)piperidin-1-yl]carbonyl}-1-benzothien-2-yl)-3-ethylurea], the IC50 in experiment [1] (setting [5]) was at most 100 nM.
Same read-out and setting: then `CCNC(=O)Nc1sc2ccccc2c1C(=O)N1CCC(N2CCCC3(CC(C)N(CCO)C3=O)C2)CC1` (centres unmarked) [Example 187, 1-ethyl-3-[3-({4-[2-(2-hydroxyethyl)-3-methyl-1-oxo-2,7-diazaspiro[4.5]dec-7-yl]piperidin-1-yl}carbonyl)-1-benzothien-2-yl]urea], with at most 100 nM.
Same read-out and setting: as for `CC1(C)CC2(CCCN(C3CCN(C(=O)c4c(NC(N)=O)sc5ccccc45)CC3)C2)C(=O)O1` (centres unmarked) [Example 290, N-(3-{[4-(3,3-dimethyl-1-oxo-2-oxa-7-azaspiro[4.5]dec-7-yl)piperidin-1-yl]carbonyl}-1-benzothien-2-yl)urea], the figure is at most 100 nM.
For `Cc1c(C(=O)OC(C)(C)C)sc(NC(N)=O)c1C(=O)N1CCC(N2CCCC3(C2)CC(C)(C)OC3=O)CC1` (centres unmarked) [Example 291, tert-butyl 5-[(aminocarbonyl)amino]-4-{[4-(3,3-dimethyl-1-oxo-2-oxa-7-azaspiro[4.5]dec-7-yl)piperidin-1-yl]carbonyl}-3-methylthiophene-2-carboxylate], in experiment [1] (setting [5]), the concentration for half-maximal inhibition (IC50) is at most 100 nM.
The same measure, in the same setting: as for `CNC(=O)Nc1sc2ccccc2c1C(=O)N1CCC(N2CCCC3(C2)CC(C)(C)OC3=O)CC1` (centres unmarked) [Example 324, N-(3-{[4-(3,3-dimethyl-1-oxo-2-oxa-7-azaspiro[4.5]dec-7-yl)piperidin-1-yl]carbonyl}-1-benzothien-2-yl)-N′-methylurea], the figure is at most 100 nM; as for `CCNC(=O)Nc1sc2ccccc2c1C(=O)N1CCC(N2CCCC3(C2)OC(=O)N(C(C)(C)C)C3=O)CC1` (centres unmarked) [Example 350, N-(3-{[4-(3-tert-butyl-2,4-dioxo-1-oxa-3,7-diazaspiro[4.5]dec-7-yl)piperidin-1-yl]carbonyl}-1-benzothien-2-yl)-N′-ethylurea], at most 100 nM; as for `CCNC(=O)Nc1sc2ccccc2c1C(=O)N1CCC(N2CCCC3(C2)N=C(CC)N(CC)C3=O)CC1` (centres unmarked) [Example 354, N-(3-{[4-(2,3-diethyl-4-oxo-1,3,7-triazaspiro[4.5]dec-1-en-7-yl)piperidin-1-yl]carbonyl}-1-benzothien-2-yl)-N′-ethylurea], at most 100 nM.
The same measure, in the same setting: then `CCN1C(=O)C2(CCCN(C3CCN(C(=O)c4c(NC(N)=O)sc5ccccc45)CC3)C2)N=C1C(C)C` (centres unmarked) [Example 357, N-(3-{[4-(3-ethyl-2-isopropyl-4-oxo-1,3,7-triazaspiro[4.5]dec-1-en-7-yl)piperidin-1-yl]carbonyl}-1-benzothien-2-yl)urea], with at most 100 nM.
